Experimental data: patent US20070082339A1, “Methods and compositions for screening for HDAC inhibitory activity” (priority 2005, published 2007)
Square brackets hold non-standard residues; d marks the D form. Peptide text beside a SMILES is read from it. ξ: configuration not given here. Aoe(9ξ) = N[C@@H](CCCCCC(=O)C1CO1)C(=O)O; dPip = O=C(O)[C@H]1CCCCN1

Legend:
BID = conditions: T cell leukemia cells; independently of caspase activity; cited from earlier work
RhoB promoter [1] = test: RhoB promoter deletion/mutation constructs, induction by TPX; assay type: cell-based; conditions: following TPX treatment
Procedure: (§1) Furthermore, mutations in this CCAAT box reduced the ability of HDAC1 to confer repression of RhoB promoter activity. In addition, chromatin immunoprecipitation assays reveal that TPX increased the level of chromatin acetylation in the TPX-responsive region of the RhoB promoter containing the inverted CCAAT box. […] The global gene expression profiles of A549 cells following inhibition of HDAC with LAQ824 were determined by DNA microarray analysis.

RhoB promoter [2] = test: Chromatin immunoprecipitation assays; assay type: cell-based; conditions: region containing the inverted CCAAT box
Procedure: as §1

histone deacetylase 1 = histone deacetylase 1 (Homo sapiens, UniProt Q13547); conditions: Tauton et al. Science 272:408-411 (1996); cited from earlier work
Sequence of histone deacetylase 1 (Q13547 whole entry, species assumed): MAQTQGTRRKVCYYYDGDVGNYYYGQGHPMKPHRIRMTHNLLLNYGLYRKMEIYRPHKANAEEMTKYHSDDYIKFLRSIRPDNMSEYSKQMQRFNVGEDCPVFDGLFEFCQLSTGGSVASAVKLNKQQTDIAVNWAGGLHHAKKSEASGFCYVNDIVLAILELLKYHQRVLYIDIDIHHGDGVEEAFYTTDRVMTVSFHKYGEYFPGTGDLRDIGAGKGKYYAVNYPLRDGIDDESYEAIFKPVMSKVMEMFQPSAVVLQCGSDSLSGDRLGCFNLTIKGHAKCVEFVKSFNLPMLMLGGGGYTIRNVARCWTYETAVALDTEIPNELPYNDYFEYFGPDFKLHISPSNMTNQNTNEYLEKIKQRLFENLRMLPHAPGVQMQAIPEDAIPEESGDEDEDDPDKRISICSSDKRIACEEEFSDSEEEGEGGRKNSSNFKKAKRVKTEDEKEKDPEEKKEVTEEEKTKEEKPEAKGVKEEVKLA

Row | Compound | BID cleavage (BID) | induction of expression from RhoB promoter deletion constructs (RhoB promoter [1]) | level of chromatin acetylation in the TPX-responsive region of the RhoB promoter (RhoB promoter [2]) | inhibition of histone deacetylase 1 (histone deacetylase 1)
1 | O=C(CCCCCCC(=O)Nc1ccccc1)NO [SAHA] | cleaved |  |  | 
2 | O=C(CCCCC[C@@H]1NC(=O)[C@H]2CCCCN2C(=O)[C@H](Cc2ccccc2)NC(=O)[C@H](Cc2ccccc2)NC1=O)C1CO1 (stereo partly shown) [TPX, trapoxin A] (cyclo(FF[dPip][Aoe(9ξ)])) |  | induction of expression from all of these deletions is similar | increased | potently inhibit
